# Assay results as given in patent US20190374526A1, “Substituted Heterocyclic Compounds as Inhibitors of PRDM9” (Merck Sharp & Dohme Corp., priority 2018, published 2019).
# Biological target: T1, hPRDM9 (amino acids 195-385) (Homo sapiens, UniProt Q9NQV7)
# T1 construct: 1.25 nM hPRDM9 (amino acids 195-385)
# T1 sequence (Q9NQV7 195-385): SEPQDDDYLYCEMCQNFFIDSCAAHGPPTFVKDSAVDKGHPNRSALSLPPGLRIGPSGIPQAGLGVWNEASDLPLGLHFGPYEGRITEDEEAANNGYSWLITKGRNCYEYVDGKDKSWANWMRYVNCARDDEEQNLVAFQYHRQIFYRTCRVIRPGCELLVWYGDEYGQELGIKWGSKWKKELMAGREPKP
# Experiment: PRDM9 biochemical assay (radiometric, 3[H] methyl transfer from SAM to biotinylated histone H3 peptide)
# Conditions: 1 nM hPRDM9, 1 μM biotinylated H3(1-25)K4 peptide, 5 μM 3[H]-SAM, 55 μM un-labeled SAM, 25° C., 30 minutes
# Protocol: The PRDM9 biochemical assay was carried out using a radiometric format involving the transfer of ^3[H] methyl group from S-adenosyl methionine (SAM) to a biotinylated histone H3 peptide (H3(1-25)K4). 10 mM compounds in DMSO were diluted 20 fold in assay buffer (10 mM Tris-HCl, pH 8.5, 10 mM DTT, and 0.01% Triton X-100) before adding […] to a well in a 384 well polypropylene microplate plate and adding 8 μl of reaction mix (1.25 nM hPRDM9 (amino acids 195-385), 1.25 μM biotinylated H3 peptide in assay buffer). The ^3[H]-SAM and cold SAM stock solutions were diluted to 50 μM and 550 μM respectively in assay buffer before aliquoting 1 μl of 50 μM ^3[H]-SAM, 550 μM SAM into each well to initiate the reaction. The assay was performed at 25° C. at the final concentrations of 1 nM hPRDM9, 1 μM peptide, 5 μM ^3[H]-SAM, and 55 μM un-labeled SAM in assay buffer. The reaction was quenched after 30 minutes by adding 25 μl 7.5 M Guanidine-HCl. Quenched reactions were transferred to streptavidin coated Flashplates, diluted two fold in assay buffer, incubated for 1 hour, and read on a Perkin Elmer Topcount instrument. Compound activity was expressed relative to activity of 0.5% (v/v) DMSO treated samples and fit to a four parameter logistic equation to determine IC50 values.
row,IC50 [µM],Structure (SMILES)
1,0.095,COc1cc(OC)cc(-c2noc(N3CCN(CCO)C4(CCN(c5ccnc(C)c5)CC4)C3)n2)c1 [Compound 98]
2,0.07,COc1cc(OC)cc(-c2noc(N3CCN(S(C)(=O)=O)C4(CCN(c5ccnc(C)c5)CC4)C3)n2)c1 [Compound 99]
3,0.14,COc1cc(OC)cc(-c2noc(N3CCN(c4ccccc4)C4(CCN(c5ccnc(C)c5)CC4)C3)n2)c1 [Compound 100]
4,0.45,COc1cc(OC)cc(-c2noc(N3CCN(C(=O)N(C)C)C4(CCN(c5ccnc(C)c5)CC4)C3)n2)c1 [Compound 101]
5,4.4,COc1cc(OC)cc(-c2noc(N3CCN(C)C4(CCN(c5ccnc6ccccc56)CC4)C3)n2)c1 [Compound 102]
6,0.072,"Cc1cc(N2CC3(CCCN(c4nc(-c5cc(Cl)cc(Cl)c5)no4)C3)C2)ccn1 [Compound 116, 3-(3,5-dichlorophenyl)-5-(2-(2-methylpyridin-4-yl)-2,6-diazaspiro[3.5]nonan-6-yl)-1,2,4-oxadiazole]"
7,2,Cc1cc(N2CC3(CCCN(c4nc(-c5cccc(Br)c5)no4)C3)C2)ccn1 [Compound 117]
8,16.6,Cc1cc(N2CC3(CCCN(c4nc(-c5cc(Cl)cc(Cl)c5)co4)C3)C2)ccn1 [Compound 118]
9,0.3,Cc1cc(N2CC3(C2)CN(c2nc(-c4cc(Cl)cc(Cl)c4)no2)CCO3)ccn1 [Compound 119]
10,12.2,Cc1cc(N2CC3(CCCN(c4cncc(-c5cc(Cl)cc(Cl)c5)n4)C3)C2)ccn1 [Compound 120]
11,13.7,"Cc1cc(N2CC3(CCCN(c4onc(-c5cc(Cl)cc(Cl)c5)c4Br)C3)C2)ccn1 [Compound 121, 4-bromo-3-(3,5-dichlorophenyl)-5-(2-(2-methylpyridin-4-yl)-2,6-diazaspiro[3.5]nonan-6-yl)isoxazole]"
12,30.6,"Cc1cc(N2CC3(CCCN(c4onc(-c5cc(Cl)cc(Cl)c5)c4-c4ccoc4)C3)C2)ccn1 [Compound 122, 3-(3,5-dichlorophenyl)-4-(furan-3-yl)-5-(2-(2-methylpyridin-4-yl)-2,6-diazaspiro[3.5]nonan-6-yl)isoxazole]"
13,6.67,Cc1cc(N2CC3(CCCN(c4onc(-c5cc(Cl)cc(Cl)c5)c4-c4ccc(N)cc4)C3)C2)ccn1 [Compound 123]
14,17.6,COc1ccccc1-c1c(-c2cc(Cl)cc(Cl)c2)noc1N1CCCC2(CN(c3ccnc(C)c3)C2)C1 [Compound 124]
15,25.1,COc1ccc(-c2c(-c3cc(Cl)cc(Cl)c3)noc2N2CCCC3(CN(c4ccnc(C)c4)C3)C2)c(OC)c1 [Compound 125]
16,11.1,"Cc1cc(N2CC3(CCCN(c4ccn(-c5cc(Cl)cc(Cl)c5)n4)C3)C2)ccn1 [Compound 126, 6-(1-(3,5-dichlorophenyl)-1H-pyrazol-3-yl)-2-(2-methylpyridin-4-yl)-2,6-diazaspiro[3.5]nonane]"
17,26.9,"Cc1cc(N2CC3(CCCN(CC(C)C(=O)c4cc(Cl)cc(Cl)c4)C3)C2)ccn1 (centres unmarked) [Compound 127, 1-(3,5-dichlorophenyl)-2-methyl-3-(2-(2-methylpyridin-4-yl)-2,6-diazaspiro[3.5]nonan-6-yl)propan-1-one]"
18,23.7,"Cc1cc(N2CC3(CCCN(c4cc(-c5cccc(F)c5F)n[nH]4)C3)C2)ccn1 [Compound 128, 6-(3-(2,3-difluorophenyl)-1H-pyrazol-5-yl)-2-(2-methylpyridin-4-yl)-2,6-diazaspiro[3.5]nonane]"
19,19.1,"COC(=O)c1cccc(-c2cc(N3CCCC4(CN(c5ccnc(C)c5)C4)C3)on2)c1 [Compound 129, methyl 3-(5-(2-(2-methylpyridin-4-yl)-2,6-diazaspiro[3.5]nonan-6-yl)isoxazol-3-yl)benzoate]"
20,24.3,"COC(=O)c1cccc(-c2cc(N3CCCC4(CN(c5ccnc(C)c5)C4)C3)[nH]n2)c1 [Compound 130, methyl 3-(5-(2-(2-methylpyridin-4-yl)-2,6-diazaspiro[3.5]nonan-6-yl)-1H-pyrazol-3-yl)benzoate]"
21,23.1,"Cc1cc(N2CC3(CCCN(c4cc(-c5ccc(F)c(F)c5)n[nH]4)C3)C2)ccn1 [Compound 131, 6-(3-(3,4-difluorophenyl)-1H-pyrazol-5-yl)-2-(2-methylpyridin-4-yl)-2,6-diazaspiro[3.5]nonane]"
22,5.46,"Cc1cc(N2CC3(CCCN(c4ccnc(-c5cc(Cl)cc(Cl)c5)c4)C3)C2)ccn1 [Compound 132, 6-(2-(3,5-dichlorophenyl)pyridin-4-yl)-2-(2-methylpyridin-4-yl)-2,6-diazaspiro[3.5]nonane]"
23,17,"Cc1cc(N2CC3(CCCN(c4cc(-c5cccc(F)c5F)no4)C3)C2)ccn1 [Compound 133, 3-(2,3-difluorophenyl)-5-(2-(2-methylpyridin-4-yl)-2,6-diazaspiro[3.5]nonan-6-yl)isoxazole]"

row,IC50 [µM],Structure (SMILES)
1,34.6,"Cc1cc(N2CC3(CCCN(c4ccc5c(Cl)cc(Cl)cc5n4)C3)C2)ccn1 [Compound 134, 5,7-dichloro-2-(2-(2-methylpyridin-4-yl)-2,6-diazaspiro[3.5]nonan-6-yl)quinoline]"
2,21.1,"Cc1cc(N2CC3(CCCN(c4cc(-c5ccc(F)c(C(F)(F)F)c5)n[nH]4)C3)C2)ccn1 [Compound 135, 6-(3-(4-fluoro-3-(trifluoromethyl)phenyl)-1H-pyrazol-5-yl)-2-(2-methylpyridin-4-yl)-2,6-diazaspiro[3.5]nonane]"
3,16.5,"Cc1cc(N2CC3(CCCN(c4cc(-c5cc(F)cc(Cl)c5)n[nH]4)C3)C2)ccn1 [Compound 136, 6-(3-(3-chloro-5-fluorophenyl)-1H-pyrazol-5-yl)-2-(2-methylpyridin-4-yl)-2,6-diazaspiro[3.5]nonane]"
4,21.5,"Cc1cc(N2CC3(CCCN(c4cc(-c5cc(Cl)cc(Cl)c5)ccn4)C3)C2)ccn1 [Compound 137, 6-(4-(3,5-dichlorophenyl)pyridin-2-yl)-2-(2-methylpyridin-4-yl)-2,6-diazaspiro[3.5]nonane]"
5,4.8,"Cc1cc(N2CC3(CCCN(c4nc(-c5ccccc5)no4)C3)C2)ccn1 [Compound 138, 5-(2-(2-methylpyridin-4-yl)-2,6-diazaspiro[3.5]nonan-6-yl)-3-phenyl-1,2,4-oxadiazole]"
6,0.393,COc1cc(OC)cc(-c2noc(N3CCOC4(CN(c5ccnc(C)c5)C4)C3)n2)c1 [Compound 139]
7,0.203,COc1cccc(-c2noc(N3CCCC4(CN(c5ccnc(C)c5)C4)C3)n2)c1 [Compound 142]
8,≥ 50,Cc1cc(N2CC3(CCCN(c4nc(Cc5ccc(F)cc5)no4)C3)C2)ccn1 [Compound 143]
9,42.3,Cc1cc(N2CC3(CCCN(c4nc(-c5ccc(Cl)cc5)no4)C3)C2)ccn1 [Compound 144]
10,4.7,COc1ccc(-c2noc(N3CCCC4(CN(c5ccnc(C)c5)C4)C3)n2)cc1OC [Compound 145]
11,≥ 50,Cc1cc(N2CC3(CCCN(c4nc(C5CC5)no4)C3)C2)ccn1 [Compound 146]
12,0.263,Cc1cc(N2CC3(CCCN(c4nc(-c5cccc(Cl)c5)no4)C3)C2)ccn1 [Compound 147]
13,≥ 50,Cc1cc(N2CC3(CCCN(c4nc(-c5ccccc5Cl)no4)C3)C2)ccn1 [Compound 148]
14,0.066,COc1cc(OC)cc(-c2noc(N3CC4(CCC3=O)CCN(c3ccnc(C)c3)CC4)n2)c1 [Compound 150]
15,44.8,"COc1cccc(-c2noc(N3CC4(CCC3=O)CCN(c3ccnc(C)c3)CC4)n2)c1 [Compound 153, 2-(3-(3-methoxyphenyl)-1,2,4-oxadiazol-5-yl)-9-(2-methylpyridin-4-yl)-2,9-diazaspiro[5.5]undecan-3-one]"
16,3.45,"Cc1cc(NC2CC3(CCN(c4nc(-c5cc(Cl)cc(Cl)c5)no4)C3)C2)ccn1 (centres unmarked) [Compound 154, 6-(3-(3,5-dichlorophenyl)-1,2,4-oxadiazol-5-yl)-N-(2-methylpyridin-4-yl)-6-azaspiro[3.4]octan-2-amine]"
17,3.46,Cc1cc(NC2CC3(CCN(c4nc(-c5cc(Cl)cc(Cl)c5)no4)C3)C2)ccn1 (centres unmarked) [Compound 155]
18,16,Cc1cc(NC2CC23CCN(c2nc(-c4cc(Cl)cc(Cl)c4)no2)C3)ccn1 (centres unmarked) [Compound 156]
19,31,Cc1cc(NC2CC23CCN(c2nc(-c4cc(Cl)cc(Cl)c4)no2)C3)ccn1 (centres unmarked) [Compound 157]
20,0.35,COc1cc(OC)cc(-c2noc(N3CCO[C@]4(C[C@H]5CC[C@@H](C4)N5c4ccnc(C)c4)C3)n2)c1 [Compound 160]
21,0.47,COc1cc(OC)cc(-c2nnc(N3CCN(C)C4(CCN(c5ccnc(C)c5)CC4)C3)o2)c1 [Compound 162]
22,3.08,COc1cc(OC)cc(-c2noc(N3CC(C)(C)OC4(CN(c5ccnc(C)c5)C4)C3)n2)c1 [Compound 163]

row,Structure (SMILES),IC50 [µM]
1,COc1cc(OC)cc(-c2noc(N3CCC4(CC5CCC(C4)N5c4ccnc(C)c4)C3)n2)c1 (centres unmarked) [Compound 158],3.81
2,COc1cc(OC)cc(-c2noc(N3CCN(C)C4(CCN(c5ccnc(C)c5)CC4)C3)n2)c1 [Compound 161],0.049
